For orientation: IC50 means the concentration that inhibits the measured activity by half.

For the test, the target named is T1, KRAS (aa 1-169) G12C, C51S, C80L, C118S (Homo sapiens, UniProt P01116, C118S/C51S/C80L/G12C).
T1 construct: The KRAS (aa 1-169) G12C, C51S, C80L, C118S with a His-tag; made in house
T1 sequence (P01116 1-169 isoform P01116-2 G12C/C51S/C80L/C118S): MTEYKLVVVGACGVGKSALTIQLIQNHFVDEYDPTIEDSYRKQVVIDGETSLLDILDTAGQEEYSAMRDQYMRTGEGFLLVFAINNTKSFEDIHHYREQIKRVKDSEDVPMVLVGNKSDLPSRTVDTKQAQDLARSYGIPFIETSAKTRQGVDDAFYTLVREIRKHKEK
The test is described as follows: KRAS G12C SOS1-mediated nucleotide exchange / GST-cRaf RBD binding FRET assay. The test is classed as biochemical. The conditions noted are these: GDP-loaded KRAS G12C pre-incubated with compound at 24° C. for 3 hrs; SOS1, GTPγS and GST-cRaf RBD added; FRET 665 nm/620 nm. The method, then: Biochemical Functional Assay:
The KRAS (aa 1-169) G12C, C51S, C80L, C118S with a His-tag was expressed, purified and loaded with GDP in house. All protein and substrate solutions were prepared in assay buffer containing 25 mM HEPES pH7.5, 10 mM MgCl2, and 0.01% Triton X-100. Purified GDP-loaded KRAS (aa 1-169) G12C, C51S, C80L, C118S protein was pre-incubated with a serially diluted compound at 24° C. for 3 hrs. Purified SOS1 (aa 564-1049) protein, GTPγS (Sigma) and GST-cRaf RBD (aa 1-149) were then added to each well and incubated at 24° C. for additional 3 hrs. […] Following the incubation, Mab Anti-6HIS-Tb cryptate (Cisbio) and Mab Anti GST-XL665 (Cisbio) were added and further incubated at 24° C. for 3 hrs. The binding interaction between active GTPγS KRAS G12C and GST-cRaf RBD brings the Tb and XL665 into close proximity enabling an increased FRET signal (Ex337 nm, Em665 nm/620 nm). The inhibition percentage of nucleotide exchange reaction in presence of increasing concentrations of compounds was calculated based on the ratio of fluorescence at 665 nm to that at 620 nm detected on a BMG PHERAstar FSX instrument. The IC50 value of each compound was calculated from fitting the data to the four-parameter logistic model by Dotmatics.
For the compound `C=CC(=O)N1CCN(c2nc(OC[C@@H]3CCCN3C)nc3c2CN(Cc2cccc4c2CCO4)C3)C[C@@H]1CC#N` [Example 21, 2-((S)-1-acryloyl-4-(6-((2,3-dihydrobenzofuran-4-yl)methyl)-2-(((S)-1-methylpyrrolidin-2-yl)methoxy)-6,7-dihydro-5H-pyrrolo[3,4-d]pyrimidin-4-yl)piperazin-2-yl)acetonitrile], the IC50 turned out to be 92.5 nM.

Regarding `C=CC(=O)N1CCN(c2nc(OC[C@@H]3CCCN3C)nc3cn(Cc4cccc5ccccc45)cc23)C[C@@H]1CC#N` [Example 7, 2-((S)-1-acryloyl-4-(2-(((S)-1-methylpyrrolidin-2-yl)methoxy)-6-(naphthalen-1-ylmethyl)-6H-pyrrolo[3,4-d]pyrimidin-yl)piperazin-2-yl)acetonitrile], the IC50 turned out to be 174 nM.

For the compound `C=CC(=O)N1CCN(c2nc(OC[C@@H]3CCCN3C)nc3c2CN(Cc2cc(O)ccc2F)C3)C[C@@H]1CC#N` [Example 22, 2-((S)-1-acryloyl-4-(6-(2-fluoro-5-hydroxybenzyl)-2-(((S)-1-methylpyrrolidin-2-yl)methoxy)-6,7-dihydro-5H-pyrrolo[3,4-d]pyrimidin-4-yl)piperazin-2-yl)acetonitrile], the IC50 worked out at 9.63 nM.

As to `C=CC(=O)N1CCN(c2nc(OC[C@@H]3CCCN3C)nc3c2CN(C(=O)c2cc(N)cc4ccccc24)C3)C[C@@H]1CC#N` [Example 50], the half-inhibitory concentration (IC50) was determined as 6.16 nM.

On to `C=CC(=O)N1CCN(c2nc(OCC3CCCN3C)nc3c2CN(C2Cc4cccc5cccc2c45)C3)CC1CC#N` (single isomer, unassigned) [Example 15 (P2)], for which the IC50 was found to be 5.27 nM.

With `C=CC(=O)N1CCN(c2nc(OC[C@@H]3CCCN3C)nc3c2CN(C(=O)c2cccc4cccc(O)c24)C3)C[C@@H]1CC#N` [Example 56], the IC50 came out at 941 nM.

Consider `C=CC(=O)N1CCN(c2nc(OC[C@@H]3CCCN3C)nc3c2CN(Cc2c(O)cccc2F)C3)C[C@@H]1CC#N` [Example 23, 2-((S)-1-acryloyl-4-(6-(2-fluoro-6-hydroxybenzyl)-2-(((S)-1-methylpyrrolidin-2-yl)methoxy)-6,7-dihydro-5H-pyrrolo[3,4-d]pyrimidin-4-yl)piperazin-2-yl)acetonitrile], for which the 50% inhibitory concentration (IC50) amounted to 28.1 nM.

On to `C=CC(=O)N1CCN(c2nc(OC[C@@H]3CCCN3C)nc3c2CN(C(=O)Nc2cccc4ccccc24)C3)C[C@@H]1CC#N` [Example 38, 4-((S)-4-acryloyl-3-(cyanomethyl)piperazin-1-yl)-2-(((S)-1-methylpyrrolidin-2-yl)methoxy)-N-(naphthalen-1-yl)-5,7-dihydro-6H-pyrrolo[3,4-d]pyrimidine-6-carboxamide], for which the IC50 came out at 1570 nM.

In the case of `C=CC(=O)N1CCN(c2nc(OC[C@@H]3CCCN3C)nc3c2CN(Cc2cccc(C)c2C)C3)C[C@@H]1CC#N` [Example 5, 2-((S)-1-acryloyl-4-(6-(2,3-dimethylbenzyl)-2-(((S)-1-methylpyrrolidin-2-yl)methoxy)-6,7-dihydro-5H-pyrrolo[3,4-d]pyrimidin-4-yl)piperazin-2-yl)acetonitrile], the IC50 came out at 56.1 nM.

As for `C=CC(=O)N1CCN(c2nc(OC[C@@H]3CCCN3C)nc3c2CN(Cc2cccc4ccccc24)C3)C[C@@H]1CC#N` [Example 6, 2-((S)-1-acryloyl-4-(2-(((S)-1-methylpyrrolidin-2-yl)methoxy)-6-(naphthalen-1-ylmethyl)-6,7-dihydro-5H-pyrrolo[3,4-d]pyrimidin-4-yl)piperazin-2-yl)acetonitrile], the IC50 is 27.7 nM.

For `C=CC(=O)N1CCN(c2nc(OC[C@@H]3CCCN3C)nc3c2CN(C(=O)c2cc(O)ccc2C)C3)C[C@@H]1CC#N` [Example 47], the IC50 came out at 102 nM.

On to `C=CC(=O)N1CCN(c2nc(OC[C@@H]3CCCN3C)nc3c2CN(C(=O)c2cccc4cccc(C5CC5)c24)C3)C[C@@H]1CC#N` [Example 35, 2-((S)-1-acryloyl-4-(6-(8-cyclopropyl-1-naphthoyl)-2-(((S)-1-methylpyrrolidin-2-yl)methoxy)-6,7-dihydro-5H-pyrrolo[3,4-d]pyrimidin-4-yl)piperazin-2-yl)acetonitrile], for which the concentration for half-maximal inhibition (IC50) is 256 nM.

As to `C=CC(=O)N1CCN(c2nc(OC[C@@H]3CCCN3C)nc3c2CN(Cc2ccc(F)c4ccccc24)C3)C[C@@H]1CC#N` [Example 10, 2-((S)-1-acryloyl-4-(6-((4-fluoronaphthalen-1-yl)methyl)-2-(((S)-1-methylpyrrolidin-2-yl)methoxy)-6,7-dihydro-5H-pyrrolo[3,4-d]pyrimidin-4-yl)piperazin-2-yl)acetonitrile], the IC50 amounted to 415 nM.

For `C=CC(=O)N1CCN(c2nc(OC[C@@H]3CCCN3C)nc3c2CN(Cc2cccc4cccc(O)c24)C3)C[C@@H]1CC#N` [Example 24, 2-((S)-1-acryloyl-4-(6-((8-hydroxynaphthalen-1-yl)methyl)-2-(((S)-1-methylpyrrolidin-2-yl)methoxy)-6,7-dihydro-5H-pyrrolo[3,4-d]pyrimidin-4-yl)piperazin-2-yl)acetonitrile], the half-maximal inhibitory concentration (IC50) was determined as 101 nM.

Regarding `C=CC(=O)N1CCN(c2nc(OC3CCN(C)CC3)nc3c2CN(C2Cc4cccc5cccc2c45)C3)CC1CC#N` (single isomer, unassigned) [Example 17 (P2)], the IC50 came to 949 nM.

Turning to `C=CC(=O)N1CCN(c2nc(OC[C@@H]3CCCN3C)nc3c2CN(Cc2cccc4cccc(C)c24)C3)C[C@@H]1CC#N` [Example 8, 2-((S)-1-acryloyl-4-(6-((8-methylnaphthalen-1-yl)methyl)-2-(((S)-1-methylpyrrolidin-2-yl)methoxy)-6,7-dihydro-5H-pyrrolo[3,4-d]pyrimidin-4-yl)piperazin-2-yl)acetonitrile], the IC50 is 495 nM.

With `C=CC(=O)N1CCN(c2nc(OC[C@@H]3CCCN3C)nc3c2CN(C2CCc4ccccc42)C3)C[C@@H]1CC#N` (stereo partly shown) [Example 45], the IC50 worked out at 12.6 nM.

Regarding `C=CC(=O)N1CCN(c2nc(OC[C@@H]3CCCN3C)nc3c2CN(Cc2cccc(C)c2Cl)C3)C[C@@H]1CC#N` [Example 53], the IC50 was determined as 14.9 nM.

As for `C=CC(=O)N1CCN(c2nc(N3CC(N(C)C)C3)nc3c2CN(C2Cc4cccc5cccc2c45)C3)CC1CC#N` (single isomer, unassigned) [Example 16 (P2)], the IC50 was found to be 256 nM.

`C=CC(=O)N1CCN(c2nc(N3CC(N(C)C)C3)nc3c2CN(C2Cc4cccc5cccc2c45)C3)CC1CC#N` (single isomer, unassigned) [Example 16 (P1)]: the IC50 was determined as 5650 nM.

Take `C=CC(=O)N1CCN(c2nc(OC3CCN(C4CCOCC4)CC3)nc3c2CN(C2Cc4cccc5cccc2c45)C3)C[C@@H]1CC#N` (stereo partly drawn) [Example 12, 2-((2S)-1-acryloyl-4-(6-(1,2-dihydroacenaphthylen-1-yl)-2-((1-(tetrahydro-2H-pyran-4-yl)piperidin-4-yl)oxy)-6,7-dihydro-5H-pyrrolo[3,4-d]pyrimidin-4-yl)piperazin-2-yl)acetonitrile]: the IC50 was 379 nM.

For `C=CC(=O)N1CCN(c2nc(OC[C@@H]3CCCN3C)nc3c2CN(C(C)c2cccc4ccccc24)C3)C[C@@H]1CC#N` (stereo partly drawn) [Example 11, 2-((2S)-1-acryloyl-4-(2-(((S)-1-methylpyrrolidin-2-yl)methoxy)-6-(1-(naphthalen-1-yl)ethyl)-6,7-dihydro-5H-pyrrolo[3,4-d]pyrimidin-4-yl)piperazin-2-yl)acetonitrile], the IC50 amounted to 170 nM.

As to `C=CC(=O)N1CCN(c2nc(OC[C@@H]3CCCN3C)nc3c2CN(Cc2cc(O)cc4ccccc24)C3)C[C@@H]1CC#N` [Example 25, 2-((S)-1-acryloyl-4-(6-((3-hydroxynaphthalen-1-yl)methyl)-2-(((S)-1-methylpyrrolidin-2-yl)methoxy)-6,7-dihydro-5H-pyrrolo[3,4-d]pyrimidin-4-yl)piperazin-2-yl)acetonitrile], the IC50 was 3.27 nM.

In the case of `C=CC(=O)N1CCN(c2nc(OC[C@@H]3CCCN3C)nc3c2CN(C(=O)c2c(C)ccc4[nH]ncc24)C3)C[C@@H]1CC#N` [Example 31, 2-((S)-1-acryloyl-4-(6-(5-methyl-1H-indazole-4-carbonyl)-2-(((S)-1-methylpyrrolidin-2-yl)methoxy)-6,7-dihydro-5H-pyrrolo[3,4-d]pyrimidin-4-yl)piperazin-2-yl)acetonitrile], the IC50 was determined as 301 nM.

`C=CC(=O)N1CCN(c2nc(OC[C@@H]3CCCN3C)nc3c2CN(C(=O)c2cc(O)cc4ccccc24)C3)C[C@@H]1CC#N` [Example 29, 2-((S)-1-acryloyl-4-(6-(3-hydroxy-1-naphthoyl)-2-(((S)-1-methylpyrrolidin-2-yl)methoxy)-6,7-dihydro-5H-pyrrolo[3,4-d]pyrimidin-4-yl)piperazin-2-yl)acetonitrile]: the IC50 turned out to be 2.42 nM.

The record behind these values is patent US12630552B2, “Inhibitors of KRAS G12C” (BEIGENE, LTD., priority 2019, dated 2026).
